# Read-outs that look alike come from different tables or passages of the source.
# Key:
# Assay in all cases: biochemical
# Design in all cases: In vitro kinase panel profiling, per cent remaining kinase activity at 10 uM
# CDK1/cyclinB(h) = CDK1/cyclinB(h) (Homo sapiens, UniProt P06493); details: atp_concentration=45, read-out: % of control remaining
# Description: (§1) We derisk potential for off-target activity by profiling the compound in a CEREP panel, a standard secondary pharmacology assessment, as well as a kinase panel to derisk a potential hinge-binding motif in our leads, and a PARP panel to derisk activity against human […]. Reassuringly, the compounds are selective, with the only off-targets being moderate human CHRM2 and KOR receptors activity associated with ASAP-0011198.
# KDR(h) = KDR(h) (Homo sapiens, UniProt P35968); details: atp_concentration=90, read-out: % of control remaining
# Description: as §1
# [1] = target: T1, PI3 Kinase (p110δ/p85α)(h) (Homo sapiens, UniProt O00329); details: atp_concentration=200, read-out: % of control remaining
# T1 construct: gene PIK3CD
# Description: as §1
# [2] = target: T2, PI3 Kinase (p110α/p85α)(h) (Homo sapiens, UniProt P42336); details: atp_concentration=200, read-out: % of control remaining
# T2 construct: gene PIK3CA
# Description: as §1
# IGF-1R(h) = target: T3, IGF-1R(h) (Homo sapiens, UniProt P08069); details: atp_concentration=200, read-out: % of control remaining
# T3 construct: gene IGF1R
# Description: as §1
# MST1(h) = target: T4, MST1(h) (Homo sapiens, UniProt Q13043); details: atp_concentration=90, read-out: % of control remaining
# T4 construct: gene STK4
# T4 sequence (Q13043 1-487): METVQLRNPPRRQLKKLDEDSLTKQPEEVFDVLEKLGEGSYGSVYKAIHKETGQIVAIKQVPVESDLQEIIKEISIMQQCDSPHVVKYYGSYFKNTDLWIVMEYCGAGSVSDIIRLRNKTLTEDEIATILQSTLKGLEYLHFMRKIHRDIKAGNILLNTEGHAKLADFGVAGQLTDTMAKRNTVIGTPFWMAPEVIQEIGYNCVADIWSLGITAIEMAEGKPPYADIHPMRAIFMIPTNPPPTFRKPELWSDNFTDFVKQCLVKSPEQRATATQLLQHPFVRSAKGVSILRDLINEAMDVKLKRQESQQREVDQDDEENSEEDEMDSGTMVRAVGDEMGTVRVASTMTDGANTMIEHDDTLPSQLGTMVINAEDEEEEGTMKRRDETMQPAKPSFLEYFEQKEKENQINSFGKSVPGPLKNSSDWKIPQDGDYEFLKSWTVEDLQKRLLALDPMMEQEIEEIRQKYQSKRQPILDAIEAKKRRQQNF
# Description: as §1
# CDK2/cyclinA(h) = CDK2/cyclinA(h) (Homo sapiens, UniProt P24941); details: atp_concentration=45, read-out: % of control remaining
# Description: as §1
# Fyn(h) = Fyn(h) (Homo sapiens, UniProt P06241); details: atp_concentration=70, read-out: % of control remaining
# Description: as §1
# CaMKI(h) = target: T5, CaMKI(h) (Homo sapiens, UniProt Q14012); details: atp_concentration=200, read-out: % of control remaining
# T5 construct: gene CAMK1
# Description: as §1
# p70S6K(h) = target: T6, p70S6K(h) (Homo sapiens, UniProt P23443); details: atp_concentration=15, read-out: % of control remaining
# T6 construct: gene RPS6KB1
# Description: as §1
# PI3 Kinase (p120γ)(h) = target: T7, PI3 Kinase (p120γ)(h) (Homo sapiens, UniProt P48736); details: atp_concentration=100, read-out: % of control remaining
# T7 construct: gene PIK3CG
# Description: as §1
# mTOR(h) = mTOR(h) (Homo sapiens, UniProt P42345); details: atp_concentration=70, read-out: % of control remaining
# Description: as §1
# [3] = target: T8, PI3 Kinase (p110β/p85α)(h) (Homo sapiens, UniProt P42338); details: atp_concentration=200, read-out: % of control remaining
# T8 construct: gene PIK3CB
# Description: as §1
# GSK3β(h) = target: T9, GSK3β(h) (Homo sapiens, UniProt P49841); details: atp_concentration=15, read-out: % of control remaining
# T9 construct: gene GSK3B
# Description: as §1
# MLK1(h) = target: T10, MLK1(h) (Homo sapiens, UniProt P80192); details: atp_concentration=45, read-out: % of control remaining
# T10 construct: gene MAP3K9
# Description: as §1
# EGFR(h) = EGFR(h) (Homo sapiens, UniProt P00533); details: atp_concentration=10, read-out: % of control remaining
# Description: as §1
# SAPK2a(h) = target: T11, SAPK2a(h) (Homo sapiens, UniProt Q16539); details: atp_concentration=90, read-out: % of control remaining
# T11 construct: gene MAPK14
# Description: as §1
# PKBα(h) = target: T12, PKBα(h) (Homo sapiens, UniProt P31749); details: atp_concentration=155, read-out: % of control remaining
# T12 construct: gene AKT1
# Description: as §1
# Sequence of CDK1/cyclinB(h) (P06493 whole entry): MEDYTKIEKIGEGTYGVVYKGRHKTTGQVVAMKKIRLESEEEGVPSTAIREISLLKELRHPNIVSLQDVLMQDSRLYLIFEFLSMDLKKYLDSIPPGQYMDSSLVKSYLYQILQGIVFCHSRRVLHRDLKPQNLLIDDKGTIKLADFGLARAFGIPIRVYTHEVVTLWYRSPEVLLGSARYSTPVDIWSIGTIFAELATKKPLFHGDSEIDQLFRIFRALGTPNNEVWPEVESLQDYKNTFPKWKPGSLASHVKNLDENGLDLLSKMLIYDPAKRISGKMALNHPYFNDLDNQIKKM
# Sequence of CDK1/cyclinB(h) (P14635 whole entry partner): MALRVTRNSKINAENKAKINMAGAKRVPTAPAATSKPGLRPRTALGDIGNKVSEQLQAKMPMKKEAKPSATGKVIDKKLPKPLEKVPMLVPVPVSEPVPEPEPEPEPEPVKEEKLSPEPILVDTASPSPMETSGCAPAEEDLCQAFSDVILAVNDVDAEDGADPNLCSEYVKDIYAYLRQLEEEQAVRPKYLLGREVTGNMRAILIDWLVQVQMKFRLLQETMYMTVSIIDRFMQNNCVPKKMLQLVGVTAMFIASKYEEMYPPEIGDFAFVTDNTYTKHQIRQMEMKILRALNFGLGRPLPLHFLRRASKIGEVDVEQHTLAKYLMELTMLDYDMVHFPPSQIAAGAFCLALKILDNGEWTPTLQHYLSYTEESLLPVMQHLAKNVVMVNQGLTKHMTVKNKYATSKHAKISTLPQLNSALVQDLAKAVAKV
# T9 sequence (P49841 whole entry): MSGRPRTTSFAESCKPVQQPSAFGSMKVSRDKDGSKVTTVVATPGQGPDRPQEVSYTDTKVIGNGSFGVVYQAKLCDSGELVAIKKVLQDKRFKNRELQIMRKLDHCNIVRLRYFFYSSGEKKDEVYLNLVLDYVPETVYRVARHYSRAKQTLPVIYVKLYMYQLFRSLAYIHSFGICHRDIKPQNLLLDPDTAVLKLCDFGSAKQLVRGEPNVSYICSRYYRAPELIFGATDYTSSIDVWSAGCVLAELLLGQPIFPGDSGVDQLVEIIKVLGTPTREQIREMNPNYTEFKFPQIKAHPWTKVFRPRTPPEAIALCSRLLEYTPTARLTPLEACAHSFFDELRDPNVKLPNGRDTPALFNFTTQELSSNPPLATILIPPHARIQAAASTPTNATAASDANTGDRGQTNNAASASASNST
# T7 sequence (P48736 whole entry): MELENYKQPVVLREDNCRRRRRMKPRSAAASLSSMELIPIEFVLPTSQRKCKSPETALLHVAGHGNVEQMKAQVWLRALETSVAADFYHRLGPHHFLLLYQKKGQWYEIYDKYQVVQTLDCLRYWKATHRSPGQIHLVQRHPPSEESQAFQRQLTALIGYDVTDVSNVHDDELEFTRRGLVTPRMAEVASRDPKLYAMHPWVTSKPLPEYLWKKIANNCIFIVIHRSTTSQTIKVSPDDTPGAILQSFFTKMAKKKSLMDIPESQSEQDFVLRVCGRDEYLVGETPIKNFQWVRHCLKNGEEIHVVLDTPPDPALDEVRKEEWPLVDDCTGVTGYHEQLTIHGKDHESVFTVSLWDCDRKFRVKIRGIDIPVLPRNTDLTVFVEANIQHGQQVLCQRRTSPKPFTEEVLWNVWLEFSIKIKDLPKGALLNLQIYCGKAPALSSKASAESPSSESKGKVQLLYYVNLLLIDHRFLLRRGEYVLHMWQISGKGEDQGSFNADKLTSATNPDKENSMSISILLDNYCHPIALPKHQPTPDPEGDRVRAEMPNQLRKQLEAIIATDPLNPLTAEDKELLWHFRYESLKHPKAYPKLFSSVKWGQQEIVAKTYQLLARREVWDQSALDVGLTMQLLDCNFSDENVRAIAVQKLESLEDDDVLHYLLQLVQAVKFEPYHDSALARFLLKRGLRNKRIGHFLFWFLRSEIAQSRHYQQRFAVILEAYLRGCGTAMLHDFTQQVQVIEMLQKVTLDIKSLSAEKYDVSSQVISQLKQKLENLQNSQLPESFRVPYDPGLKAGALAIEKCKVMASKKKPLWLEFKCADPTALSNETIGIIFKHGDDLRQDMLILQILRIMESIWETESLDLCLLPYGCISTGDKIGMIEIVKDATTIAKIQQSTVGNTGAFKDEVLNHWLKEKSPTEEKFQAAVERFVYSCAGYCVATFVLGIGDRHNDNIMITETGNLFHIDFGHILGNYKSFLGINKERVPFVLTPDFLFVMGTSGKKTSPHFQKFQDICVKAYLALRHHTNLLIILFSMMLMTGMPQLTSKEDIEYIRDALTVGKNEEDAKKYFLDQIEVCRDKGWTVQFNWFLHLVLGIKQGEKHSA
# T5 sequence (Q14012 whole entry): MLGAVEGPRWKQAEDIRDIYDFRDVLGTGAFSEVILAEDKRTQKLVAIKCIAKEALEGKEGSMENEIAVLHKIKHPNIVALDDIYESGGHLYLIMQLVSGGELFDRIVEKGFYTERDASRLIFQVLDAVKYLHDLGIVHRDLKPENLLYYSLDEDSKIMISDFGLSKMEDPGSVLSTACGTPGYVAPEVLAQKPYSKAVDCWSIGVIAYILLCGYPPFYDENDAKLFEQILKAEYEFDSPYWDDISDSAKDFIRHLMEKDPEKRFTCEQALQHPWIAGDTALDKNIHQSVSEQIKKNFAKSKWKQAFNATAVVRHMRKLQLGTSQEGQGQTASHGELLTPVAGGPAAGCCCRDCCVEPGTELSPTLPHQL
# Sequence of KDR(h) (P35968 whole entry): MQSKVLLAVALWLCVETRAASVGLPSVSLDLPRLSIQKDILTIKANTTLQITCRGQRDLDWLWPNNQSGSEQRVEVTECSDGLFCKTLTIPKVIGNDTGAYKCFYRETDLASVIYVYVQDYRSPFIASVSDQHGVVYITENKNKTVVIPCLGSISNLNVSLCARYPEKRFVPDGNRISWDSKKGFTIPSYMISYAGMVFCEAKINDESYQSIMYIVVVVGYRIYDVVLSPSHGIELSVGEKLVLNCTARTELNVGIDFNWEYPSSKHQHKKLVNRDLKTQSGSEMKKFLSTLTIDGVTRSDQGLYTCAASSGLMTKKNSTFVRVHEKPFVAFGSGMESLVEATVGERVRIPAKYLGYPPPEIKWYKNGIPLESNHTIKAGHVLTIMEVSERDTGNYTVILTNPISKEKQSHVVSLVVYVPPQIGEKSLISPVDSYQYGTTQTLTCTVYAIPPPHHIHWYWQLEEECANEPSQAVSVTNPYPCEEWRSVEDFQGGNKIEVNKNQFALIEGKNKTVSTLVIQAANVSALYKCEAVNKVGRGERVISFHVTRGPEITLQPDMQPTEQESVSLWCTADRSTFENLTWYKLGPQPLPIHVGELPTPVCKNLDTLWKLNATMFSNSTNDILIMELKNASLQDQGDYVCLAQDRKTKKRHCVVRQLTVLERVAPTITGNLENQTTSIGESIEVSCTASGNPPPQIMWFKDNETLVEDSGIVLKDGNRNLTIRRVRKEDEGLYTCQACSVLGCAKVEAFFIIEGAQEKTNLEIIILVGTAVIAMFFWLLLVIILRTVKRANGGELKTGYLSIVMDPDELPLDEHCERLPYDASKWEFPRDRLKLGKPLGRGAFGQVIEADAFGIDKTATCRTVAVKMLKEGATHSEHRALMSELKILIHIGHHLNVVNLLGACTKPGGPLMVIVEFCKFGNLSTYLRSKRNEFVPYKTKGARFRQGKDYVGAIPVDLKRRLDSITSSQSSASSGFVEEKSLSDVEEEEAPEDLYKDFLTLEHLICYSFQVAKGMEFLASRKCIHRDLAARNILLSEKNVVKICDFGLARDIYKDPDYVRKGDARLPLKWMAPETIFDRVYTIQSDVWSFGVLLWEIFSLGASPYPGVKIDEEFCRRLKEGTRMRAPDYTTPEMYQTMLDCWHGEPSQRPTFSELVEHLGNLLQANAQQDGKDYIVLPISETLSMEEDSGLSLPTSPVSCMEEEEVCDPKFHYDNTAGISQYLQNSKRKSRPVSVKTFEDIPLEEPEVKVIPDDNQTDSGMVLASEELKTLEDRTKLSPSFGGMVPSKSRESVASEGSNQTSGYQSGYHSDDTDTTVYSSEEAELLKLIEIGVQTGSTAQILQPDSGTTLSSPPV
# Sequence of Fyn(h) (P06241 whole entry): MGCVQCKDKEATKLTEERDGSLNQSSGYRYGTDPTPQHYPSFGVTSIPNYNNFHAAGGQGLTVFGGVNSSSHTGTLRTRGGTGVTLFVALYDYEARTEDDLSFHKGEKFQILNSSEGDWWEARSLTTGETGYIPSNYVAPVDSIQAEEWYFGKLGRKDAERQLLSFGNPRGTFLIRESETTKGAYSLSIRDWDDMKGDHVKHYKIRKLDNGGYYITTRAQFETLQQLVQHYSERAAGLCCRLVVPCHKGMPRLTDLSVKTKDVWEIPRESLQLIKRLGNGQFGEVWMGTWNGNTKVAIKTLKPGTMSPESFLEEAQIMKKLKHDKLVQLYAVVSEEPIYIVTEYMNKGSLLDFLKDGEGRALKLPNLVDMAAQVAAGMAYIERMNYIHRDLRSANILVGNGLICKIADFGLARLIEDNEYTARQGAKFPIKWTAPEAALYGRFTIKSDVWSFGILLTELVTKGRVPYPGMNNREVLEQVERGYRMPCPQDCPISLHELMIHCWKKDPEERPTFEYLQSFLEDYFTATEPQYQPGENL
# T11 sequence (Q16539 whole entry): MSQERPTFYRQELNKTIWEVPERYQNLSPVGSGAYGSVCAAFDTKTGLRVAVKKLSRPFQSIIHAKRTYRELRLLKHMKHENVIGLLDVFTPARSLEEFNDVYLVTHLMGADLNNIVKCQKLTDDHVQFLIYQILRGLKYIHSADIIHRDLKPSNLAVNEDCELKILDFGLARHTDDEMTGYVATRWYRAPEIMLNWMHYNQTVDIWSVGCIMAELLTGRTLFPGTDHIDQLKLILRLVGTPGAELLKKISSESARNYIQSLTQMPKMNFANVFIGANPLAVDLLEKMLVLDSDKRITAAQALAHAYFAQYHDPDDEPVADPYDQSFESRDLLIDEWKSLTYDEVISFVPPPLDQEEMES
smiles,measurement,setting,value
CC(C)C(Nc1ncnc2[nH]ccc12)c1ccc2c(c1)S(=O)(=O)CCC2 (stereo not drawn) [ASAP-0008327],remaining activity at 10 µM,CDK1/cyclinB(h); batch_name=ASAP-0008327-001,129%
same,remaining activity at 10 µM,KDR(h); batch_name=ASAP-0008327-001,82%
same,remaining activity at 10 µM,[1]; batch_name=ASAP-0008327-001,101%
same,remaining activity at 10 µM,[2]; batch_name=ASAP-0008327-001,104%
same,remaining activity at 10 µM,IGF-1R(h); batch_name=ASAP-0008327-001,88%
same,remaining activity at 10 µM,MST1(h); batch_name=ASAP-0008327-001,88%
same,remaining activity at 10 µM,CDK2/cyclinA(h); batch_name=ASAP-0008327-001,96%
same,remaining activity at 10 µM,Fyn(h); batch_name=ASAP-0008327-001,127%
same,remaining activity at 10 µM,CaMKI(h); batch_name=ASAP-0008327-001,94%
same,remaining activity at 10 µM,p70S6K(h); batch_name=ASAP-0008327-001,98%
same,remaining activity at 10 µM,PI3 Kinase (p120γ)(h); batch_name=ASAP-0008327-001,103%
same,remaining activity at 10 µM,mTOR(h); batch_name=ASAP-0008327-001,102%
same,remaining activity at 10 µM,[3]; batch_name=ASAP-0008327-001,101%
same,remaining activity at 10 µM,GSK3β(h); batch_name=ASAP-0008327-001,107%
same,remaining activity at 10 µM,MLK1(h); batch_name=ASAP-0008327-001,81%
same,remaining activity at 10 µM,EGFR(h); batch_name=ASAP-0008327-001,102%
same,remaining activity at 10 µM,SAPK2a(h); batch_name=ASAP-0008327-001,108%
same,remaining activity at 10 µM,PKBα(h); batch_name=ASAP-0008327-001,96%
COc1ccc([C@@H](Cc2nnn[nH]2)NC(=O)c2ncnc3[nH]ccc23)cc1 [ASAP-0008340],remaining activity at 10 µM,CDK1/cyclinB(h); batch_name=ASAP-0008340-001,108%
same,remaining activity at 10 µM,KDR(h); batch_name=ASAP-0008340-001,79%
same,remaining activity at 10 µM,[1]; batch_name=ASAP-0008340-001,99%
same,remaining activity at 10 µM,[2]; batch_name=ASAP-0008340-001,101%
same,remaining activity at 10 µM,IGF-1R(h); batch_name=ASAP-0008340-001,106%
same,remaining activity at 10 µM,MST1(h); batch_name=ASAP-0008340-001,98%
same,remaining activity at 10 µM,CDK2/cyclinA(h); batch_name=ASAP-0008340-001,97%
same,remaining activity at 10 µM,Fyn(h); batch_name=ASAP-0008340-001,105%
same,remaining activity at 10 µM,CaMKI(h); batch_name=ASAP-0008340-001,100%
same,remaining activity at 10 µM,p70S6K(h); batch_name=ASAP-0008340-001,81%
same,remaining activity at 10 µM,PI3 Kinase (p120γ)(h); batch_name=ASAP-0008340-001,89%
same,remaining activity at 10 µM,mTOR(h); batch_name=ASAP-0008340-001,95%
same,remaining activity at 10 µM,[3]; batch_name=ASAP-0008340-001,102%
same,remaining activity at 10 µM,GSK3β(h); batch_name=ASAP-0008340-001,105%
same,remaining activity at 10 µM,MLK1(h); batch_name=ASAP-0008340-001,85%
same,remaining activity at 10 µM,EGFR(h); batch_name=ASAP-0008340-001,96%
same,remaining activity at 10 µM,SAPK2a(h); batch_name=ASAP-0008340-001,100%
same,remaining activity at 10 µM,PKBα(h); batch_name=ASAP-0008340-001,94%

# From article doi:10.1101/2024.08.19.608619, “Discovery of potent SARS-CoV-2 nsp3 macrodomain inhibitors uncovers lack of translation to cellular antiviral response” (bioRxiv, 2024)
